US5491072A, “N-alkylacridan carboxyl derivatives useful for chemiluminescent detection” (Lumigen, Inc., priority 1993, dated 1996)

How the values were obtained:
horseradish peroxidase [1] = target: T1, horseradish peroxidase (Armoracia rusticana, UniProt P00433); test: Comparison of compounds 1a-e at pH 8.9, time course and total intensity of chemiluminescence; assay type: biochemical; settings: 0.01 mM acridan, 0.1M phosphate pH 8.9, 6.2 mM H2O2, 2.25 mM p-iodophenol, 1×10^-13 mol HRP
T1 sequence (P00433 31-338 limits assumed): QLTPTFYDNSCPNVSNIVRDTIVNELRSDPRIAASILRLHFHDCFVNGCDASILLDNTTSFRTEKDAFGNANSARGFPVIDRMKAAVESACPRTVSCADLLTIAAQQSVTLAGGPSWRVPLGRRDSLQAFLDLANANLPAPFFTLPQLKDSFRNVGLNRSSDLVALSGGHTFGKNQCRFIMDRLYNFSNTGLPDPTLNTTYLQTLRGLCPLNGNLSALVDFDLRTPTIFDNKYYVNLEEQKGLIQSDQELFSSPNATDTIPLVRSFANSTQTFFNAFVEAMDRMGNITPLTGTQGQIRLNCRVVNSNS
Experimental: (§1) The experiments in the following examples were performed using a Turner Designs TD-20e luminometer fitted with neutral density filter for light attenuation. Data collection, analysis and display were software controlled. Constant temperature was maintained by means of an external circulating water bath connected to the luminometer.
A 200 μL volume of a formulation containing 0.01 mM acridan compound 1a-e in 0.1M phosphate buffer, pH 8.9, […] (6.2 mM) H2 O2, 2.25 mM p-iodophenol, 0.5% (w/w) Tween 20 and 1 mM EDTA was reacted with 1×10^-13 mol of horseradish peroxidase. […] Compared below are the peak light intensity (Imax) in relative light units (RLU), the time to maximum light intensity (tmax) and total light output.

HRP = target: T2, HRP (Armoracia rusticana, UniProt P00433); test: Comparison of detection of HRP with luminol reagent and 1b reagent; assay type: biochemical, horseradish; settings: corrected signal-to-background at 5 min, 37° C., comparing log (S-B)/B=0
T2 sequence (P00433 31-338 limits assumed): T1 sequence (P00433 31-338 limits assumed)
Experimental: as §1
Forty μL of a solution containing 1b (0.05 mM), p-iodophenol (2.25 mM), H2 O2 (0.2 mM), Tween 20 (0.5%), EDTA (1 mM) in 0.1M tris, pH 8.0 and forty μL of the commercial reagent (Amersham, Arlington Heights, Ill.) were incubated at 37° C. and reacted with varying amounts of HRP. FIG. 6 compares the corrected signal-to-background ratios at 5 min. […] Measuring light intensity at 15 min provides an additional reduction in detection limit with the reagent containing 1b, while the luminol reagent results are unchanged.

horseradish peroxidase [2] = target: T1, horseradish peroxidase; test: Sensitivity of detection of horseradish peroxidase using 1b and sodium perborate; assay type: biochemical; settings: 1b 46 μmol/L, 0.2 mmol/L perborate, 37° C.; for linear assay range for HRP: pH 8.0 tris
Experimental: as §1
(§2) A matrix optimization experiment was done using 1b (0.1 mM-0.05 mM), sodium perborate (3 mM-0.2 mM) and HRP (1.4×10^-18 mol-1.4×10^-14 mol) at 37° C. The final assay reagent consists of 2.25×10^-3 M p-iodophenol, 0.5% Tween 20 and 1×10^-3 M EDTA in pH 8.0, 0.1M tris buffer. The best compromise between sensitivity and dynamic range was obtained using 1b (46 μmol/L) and 0.2 mmol/L perborate. These conditions gave a linear assay for HRP in the range of 0.4×10^-18 to 1.4×10^-14 mol (detection limit S/B=1.4 after 5 min with 1.4×10^-18 mol) or in the range of 1.4×10^-18 to 1.4×10^-15 mol (detection limit S/B-1.5 after 15 min with 1.4×10^-18 mol).
FIGS. 3A to 3C show the correlation of corrected signal to background vs. amount of HRP using solutions containing 0.05 mM 1b, 0.5% Tween 20, 1×10^-3 M EDTA in pH 8.0, 0.1M tris buffer.

horseradish peroxidase [3] = target: T1, horseradish peroxidase; test: Sensitivity of detection of horseradish peroxidase using 1b and hydrogen peroxide; assay type: biochemical; settings: 1b 46 μmol/L, 0.2 mmol/L hydrogen peroxide, 37° C.; for linear assay range for HRP: pH 8.0 tris
Experimental: as §1
as §2, with “hydrogen peroxide (4.4 mM-44 μM),” for “sodium perborate (3 mM-0.2 mM) and”, “(9×10^-19 mol-1.4×10^-12” for “(1.4×10^-18 mol-1.4×10^-14”, “hydrogen peroxide.” for “perborate.”, “9×10^-19” for “0.4×10^-18”, “9×10^-19” for “1.4×10^-18”, “S/B=2” for “S/B-1.5”
FIGS. 2A to 2C show the correlation of corrected signal to background vs. amount of HRP using solutions containing 0.05 mM 1b, 0.5% Tween 20, 1×10^-3 M EDTA in pH 8.0, 0.1M tris buffer.

horseradish peroxidase [4] = target: T1, horseradish peroxidase; test: Effect of pH and buffer salt on chemiluminescence of 1b; assay type: biochemical; settings: 0.1 mM 1b, 0.8 mM H2O2, 2.25 mM p-iodophenol, 1.4×10^-15 mol HRP, 30 min, room temperature
Experimental: as §1
The present invention may be practiced over the pH range of at least 7-9 and functions with different buffering salts. Tubes containing 200 μL of a formulation containing 0.1 mM 1b in the specified buffer, 0.8 mM H2 O2, 2.25 mM p-iodophenol, 0.5% (w/w) Tween 20 and 1 mM EDTA were placed in the luminometer at room temperature. Horseradish peroxidase (1.4×10^-15 mol) was injected and the chemiluminescence intensity determined at 30 min. The time course of the light emission was similar in all four solutions. The optimum pH can vary with changes in the concentrations of the reactants.

CN1c2ccccc2C(C(=O)Oc2ccc(O)cc2)c2ccccc21 [Compound 1b, 4'-Hydroxyphenyl 10-methylacridan-9-carboxylate]
I max (RLU), peak light intensity (horseradish peroxidase [1]; 0.5% Tween 20, 1 mM EDTA): 2047 RLU
I total (RLU), total light output (horseradish peroxidase [1]): 2 × 10^6 RLU
t max (min), time to maximum light intensity (horseradish peroxidase [1]): 4.2 min
sensitivity of detection of HRP compared to the luminol reagent (HRP): greater sensitivity of detection
linear assay range for HRP (horseradish peroxidase [2]; after 5 min): 4e-19 to 1.4e-14 mol
linear assay range for HRP (horseradish peroxidase [2]; after 15 min): 1.4e-18 to 1.4e-15 mol
detection limit S/B (horseradish peroxidase [2]; after 5 min with 1.4×10^-18 mol HRP): 1.4
linear assay range for HRP (horseradish peroxidase [3]; after 5 min): 9e-19 to 1.4e-14 mol
linear assay range for HRP (horseradish peroxidase [3]; after 15 min): 9e-19 to 1.4e-15 mol
detection limit S/B (horseradish peroxidase [3]; after 5 min with 9×10^-19 mol HRP): 1.4
detection limit S/B (horseradish peroxidase [3]; after 15 min with 9×10^-19 mol HRP): 2
S/B (horseradish peroxidase [4]; 0.1 M phosphate buffer, pH 8.9): 306
S/B (horseradish peroxidase [4]; 0.1 M tris buffer, pH 8.0): 1400
S/B (horseradish peroxidase [4]; 0.1 M tris buffer, pH 8.5): 600
S/B (horseradish peroxidase [4]; 0.1 M tris buffer, pH 8.9): 160
